Data taken from patent US20210196731A1, “COMPOSITIONS AND METHODS FOR TREATING OCULAR INFLAMMATION AND OCULAR SCARRING” (priority 2018, published 2021).

Key:
[1] = test system: human Tenon's capsule fibroblasts (HTCFs); test: Collagen Contraction Assay I (delayed release fibroblast populated collagen lattice); format: cell-based
Description: The delayed release fibroblast populated collagen lattice model was used to assess inhibition of gel contraction [58] by ASA and gentamicin. […] Cell free collagen lattices were prepared identically, however to isolate the effects of HTCFs alone on collagen, constructs without HTCFs were cast as a negative control. The cell-collagen solution was pipetted gently to ensure homogenous distribution of HTCFs while avoiding the production of air bubbles, then 500 ul were pipetted into each well of a 24-well tray. Collagen constructs were allowed to polymerize at 37 C for 45 minutes before adding low serum culture media containing DMEM, 2% Fetal Bovine Serum (FBS), 1% penicillin/streptomycin (P/S).
Tension was allowed to build up within the tethered matrix at 37 C and 5% CO2 for 72 hours before a sterile spatula was used to detach each collagen construct from the edges of the culture well. Plates were then immediately scanned on a flat bed laser scanner and then once per hour for the first 12 hours, then daily for a total of 4 days. The surface area of each collagen construct was measured using ImageJ (NIH) and standardized against the baseline surface area measurement to express changes in area as a percentage of original surface area.
Vehicle control treatment solution comprised of DMEM with 2% FBS and 1% penicillin/streptomycin. The gentamicin treatment solution contained DMEM with 2% FBS, 1% penicillin/streptomycin and 1000 μg/ml gentamicin (w/vol) (Sigma-Aldrich, CAT. NO: G1397). The ASA treatment solution contained DMEM with 2% FBS, 1% penicillin/streptomycin and 2000 μg/ml ASA (w/vol) (Sigma-Aldrich, CAT. NO: A5376). The gentamicin-ASA combination treatment solution (Gent+ASA) contained DMEM with 2% FBS, 1% penicillin/streptomycin, 1000 μg/ml gentamicin (w/vol.) and 2000 μg/ml ASA (w/vo).
Culture media was removed from collagen constructs twice daily and replaced with one of the four treatment solutions for a duration of 15 minutes. […]

PPARγ = test: Western blot of HTCF protein lysate, PPARγ; format: cell-based, human; settings: AHGFs; ASA 100, 400, 1600 μg/ml, 48 hrs
Description: (§1) Cells were lysed in lysis buffer (PhosphoSafe Extraction Reagent, Novagen) containing a protease inhibitor cocktail (P2714, Sigma-Aldrich). Crude protein lysate was quantified using a Pierce BCA protein assay kit (ThermoFisher, Mississauga, ON) and 10 ug from each sample was resolved using a Novex WedgeWell 4-20% tris-glycine gel (Invitrogen). Using an iBlot Gel Transfer Device (IB1001, Invitrogen), the separated protein was transferred to a nitrocellulose membrane (1B301001, iBlot Transfer Stack, Invitrogen) which was then blocked with 5% (w/v) bovine serum albumin (Sigma-Aldrich) in Tris buffered saline (TBST) for 1 hour at room temperature. The membranes were incubated overnight at 4° C. with primary antibody diluted in TBST containing 5% BSA (w/vol). Primary antibodies used were as follows: collagen 1 (ab138492, Abcam), αSMA (ab5694, Abcam), MMP9 (ab38898, Abcam), PPARγ (sc-7273, SantaCruz Biotechnology), SMAD2/3 (ab63672, Abcam), pSMAD2/3 (ab63399, Abcam) and GAPDH (sc-47724, Santa Cruz Biotechnology, Inc.). […] Imaging and relative densiometric quantification was accomplished using a ChemiDoc MP System (Bio-Rad Laboratories, Inc.) connected to Image Lab (Version 6, Bio-Rad Laboratories, Inc.).

HTCFs [2] = test: Collagen Contraction Assay II (dose dependence); format: cell-based, human
Description: The cell-collagen solution was pipetted gently to ensure homogenous distribution of HTCFs while avoiding the production of air bubbles, then 500 ul were pipetted into each well of a 24-well tray. Collagen constructs were allowed to polymerize at 37 C for 45 minutes before adding low serum culture media containing DMEM, 2% Fetal Bovine Serum (FBS), 1% penicillin/streptomycin (P/S).
Tension was allowed to build up within the tethered matrix at 37 C and 5% CO2 for 72 hours before a sterile spatula was used to detach each collagen construct from the edges of the culture well. Plates were then immediately scanned on a flat bed laser scanner once per 24 hours for a total of 4 days. The surface area of each collagen construct was measured using ImageJ (NIH) and standardized against the baseline surface area measurement to express changes in area as a percentage of original surface area.
The gentamicin concentrations assessed were delivered in a solution contained DMEM with 2% FBS, 1% penicillin/streptomycin and either 100, 250, 500, 750 or 100 μg/ml gentamicin (Sigma-Aldrich, CAT. NO: G1397). The ASA concentrations assessed were delivered in a solution of DMEM with 2% FBS, 1% penicillin/streptomycin and either 500, 1000 or 1500 μg/ml ASA (Sigma-Aldrich, CAT. NO: A5376). […]

HTCFs [3] = test: Lipid Mediator Secretion Assay I (ASA with and without melittin, LC-MS/MS); format: cell-based, human; settings: ASA 200 μg/ml
Description: The aim of this experiment was to assess the relative secretion of COX2 vs. acetylated-COX2 products from HTCFs after an inflammatory stimulus followed by exposure to ASA with and without an extremely potent PLA2 agonist—melittin. To this end, multiple primary HTCF cell lines were cultured in DMEM w/10% FBS in 6-well culture plates, incubated at 37 C and 5% CO2, until 90% confluent. The culture media was removed, wells washed with PBS, and then fresh DMEM w/0% FBS was added. After 24 hrs of serum starvation, fresh DMEM w/0% FBS was added, this time containing a physiologically relevant inflammation/wound healing induction mixture (1 ng/ml each of: IL-1b, TNFa, IFNγ, TGFb). After 12 hrs incubation, the induction media was removed, the wells were washed with PBS and fresh DMEM w/0% FBS was added containing one of three experimental treatments for an incubation period of 24 hrs: 1) vehicle control (DMEM w/0% FBS), and 2) ASA 200 (DMEM w/0% FBS and 200 μg/ml ASA), and 3) ASA/Mel. (DMEM w/0% FBS, 200 μg/ml ASA and 10 μg/ml of melittin, a potent PLA2 agonist). At 6, 12 and 24 hrs after addition of the experimental treatments, 250 ul of supernatant was removed from each well, replaced with 250 ul of fresh DMEM w/0% FBS, and stored at −80° C. for subsequent LC-MS/MS analysis. After 24 hrs, the wells were washed with ice cold PBS three times and total cellular protein from the HTCF monolayer was collected for quantification and subsequent western blot analyses. The absolute quantity of protein within each culture well's HTCF monolayer was used as a means to standardize the relative secretion of lipid mediators by HTCFs into the culture well's supernatant.
Relative quantification of secreted lipid mediators was achieved using liquid chromatography tandem mass spectrometry combined with the addition of a known quantity of deuterated versions of the lipid mediators to each sample as internal standards (Item Numbers: #10007737, #320110, #314010, #11182, #315210, #319030, #390030, #10006410, #10006199, #334230, and #10008040, Cayman Chemical). This is a well-established method to determine the relative activity of cyclooxygenase, acetyl-COX2 and lipoxygenase biosynthetic pathways. In brief, the ratios of the integrated areas of the chromatographic peaks corresponding to each analyte and the integrated areas of the peaks corresponding to each analyte's internal standard (with known absolute quantity) are used to determine the relative quantity of each analyte in a given sample. […] The chromatographic profile of the ion count for each m/z transition was monitored, and the area under the peaks (ion intensity vs elution time) was integrated using commercial software (MultiQuant, Sciex).

MMP9 = test: Western blot of HTCF protein lysate, MMP9; format: cell-based, human; settings: ASA 100, 400, 1600 μg/ml, 48 hrs
Description: as §1

[4] = alone or with melittin 10 μg/ml, vs vehicle control

CC(=O)Oc1ccccc1C(=O)O [ASA, acetylsalicylic acid]
contraction evident by the end of the four-day period ([1]; ASA 2000 μg/ml alone): approximately 20% | HTCF mediated collagen contraction ([1]; gentamicin 1000 μg/ml and/or ASA 2000 μg/ml, 15 minutes twice daily, four day assay, vs vehicle control): significantly inhibited contraction compared to vehicle control at all time points after the first hour of the experiment | expression of PPARγ (PPARγ): significantly induce expression of PPARγ | HTCF-mediated collagen contraction (HTCFs [2]; ASA 500 μg/ml, alone or with gentamicin 100-1000 μg/ml (FIG. 8C)): no significant treatment effects found | HTCF-mediated collagen contraction (HTCFs [2]; ASA alone, 500, 1000, 1500 μg/ml, four days (FIG. 8B)): dose dependent inhibition of HTCF-mediated collagen contraction | relative amount of COX2 products relative to inf. cytokines control (HTCFs [3]): decrease the relative amount of COX2 products relative to inf. cytokines control | relative secretion of precursor PUFAs (AA, DHA and EPA) (HTCFs [3]; alone or with melittin 10 μg/ml, supernatant at 6, 12, 24 hrs): no significant increase in relative secretion of precursor PUFAs | relative secretion of acetylated-COX2 products (HTCFs [3]; [4]): no significant increase in the relative secretion of acetylated-COX2 products | secretion of COX2 products (HTCFs [3]; [4]): decrease the secretion of COX2 products relative to vehicle control; however this effect was not statistically significant | AHGF-induced expression of MMP9 (MMP9): significantly impaired the AHGF-induced expression
